Test results published in publication PMC12220852, “An adamantane‐based ligand as a novel chemical tool for thermosensory TRPM8 channel therapeutic modulation” (The Febs Journal, 2025).

Columns and labels:
hTRPM8 = molecular target: T1, hTRPM8 (Homo sapiens, UniProt Q7Z2W7); assay: Whole-cell patch-clamp of WS-12-evoked currents in HEK293 cells expressing hTRPM8; format: cell-based
T1 construct: expressed in transfected cells; host or cells: HEK293 (transient, Lipofectamine 3000)
Source text: We first used patch‐clamp to investigate the potency and blockade mechanism of compound 23 inhibiting WS‐12 evoked ionic currents in hTRPM8‐HEK293 cells. […] This blockade activity was reversible as virtually all WS‐12‐evoked ionic current could be recovered upon washout (Fig. 3A, bottom panel), thus preventing a use‐dependent side effect.
To unveil the underlying mechanism of channel blockade (competitive vs noncompetitive) we evaluated the effect of the α‐acyloxy carboxamide 23 on WS‐12 activating potency. For this purpose, we obtained the WS‐12 dose response in the absence and presence of 80 nM compound 23 (corresponding to its IC50 value).
For this purpose, we run 100 ms voltage ramps from −120 to 120 mV activated by WS‐12 in the absence and presence of 80 nM α‐acyloxy carboxamide 23.
(§1) Recording through patch‐clamp techniques was performed on HEK293 cells cultured in DMEM GlutaMax with 10% FBS and 1% P/S. The cell lines were authenticated following the standardization of STR Profiling guidelines (ANSI/ATCC ASN‐0002‐2022) using the CLA Identifier Plus PCR Amplification Kit (Thermo Fisher‐A44660) to analyze 16 highly variant human STRs. The cells were confirmed to be mycoplasma‐free. These cells were transiently transfected with plasmids encoding hTRPV1, hTRPM8, or hTRPA1 using Lipofectamine 3000. Transfected cells were seeded on 12 mm Ø glass coverslips treated with poly‐L‐lysine solution and recorded 2 days post‐transfection. The intracellular pipette solution included (in mM) 150 NaCl, 3 MgCl2, 5 EGTA, and 10 HEPES, pH 7.2 with CsOH, while the extracellular solution contained (in mM) 150 NaCl, 6 CsCl, 1 MgCl2, 1.5 CaCl2, 10 glucose, and 10 HEPES, pH 7.4 with NaOH. An EPC‐10 amplifier with Patchmaster software was used in whole‐cell experiments. Patch pipettes, created from thin‐wall borosilicate capillary glass tubing, were pulled with a Micropipette puller to a final resistance of 2–8 MΩ when filled with the internal solution. Recordings were acquired at 10 kHz and low‐pass filtered at 3 kHz, discarding recordings with leak currents > 200pA or series resistance > 20 MΩ. In voltage‐clamp recordings, cells were held at a constant potential, and the application of modulators was carried out using a gravity‐driven perfusion system. Total currents were normalized to the first current peak evoked by the activating stimuli. To study the effect of compound 23 on TRPM8 voltage dependence, a voltage step protocol from −120 to 120 mV was used with 100 ms steps of 20 mV from a holding potential at 0 mV. Leak currents were not subtracted, and conductance was calculated using the equation: G = I/(V − V r), where I is the measured ionic current, V is the applied voltage, and V r is the reversal potential that for the ionic conditions used was set to 0 mV.
Dose–response relationships for WS‐12 channel activation were normalized to the response of the channel to a saturating concentration of the agonist. Similarly, dose–response curves for blockade activity were normalized with respect to the response in the absence of the blocker. The experimental data were fitted to the Hill equation: Y=Bottom+Top‐Bottom/(1+10^ligand−LogIC50orLogEC50) using PRISM 9 software. Top was fixed to 100, as the unblocked response or the maximal response for WS‐12.

[1] = Metabolic stability and metabolite profile in mouse liver microsomes (MLM); format: in vitro ADME; conditions: phase I metabolites of compound 23 in MLM, LC-HRMS, estimated from total ion current
Description: Because of the lack of systemic activity of compound 23, we evaluated the in vitro plasmatic and hepatic metabolic stability. To this aim, compound 23 was exposed to mouse plasma and mouse liver microsome (MLM) fractions, and the residual substrate was measured after 1 h. Under these conditions, the residual substrate was about 97% and 90% in plasma and microsomes, respectively, denoting that this molecule suffers from mild hydrolysis of the ester group.
Metabolic biotransformation of compound 23 was investigated by tandem high‐resolution mass spectrometry using the software COMPOUND DISCOVERER 3.2™.
The standard incubation mixture (250 μL final volume) was carried out in a 50 mM Tris (tris[hydroxymethyl]aminomethane) buffer (pH 7.4) containing 150 mM KCl, […], 3.3 mM MgCl2, 1.3 mM NADPNa2, 3.3 mM glucose 6‐phosphate, 0.4 units·mL^−1 glucose 6‐phosphate dehydrogenase, acetonitrile as cosolvent (1% of total volume), and the substrate (50 μM). After pre‐equilibration of the mixture, an appropriate volume of MLM suspension was added to give a final protein concentration of 1.0 mg·mL^−1. The mixture was shaken for 60 min at 37 °C using a horizontal shaking thermostatic bath while protecting the samples from light. Control incubations were carried out without the presence of substrate, or NADPH regenerating system, or microsomes. Each incubation was stopped by the addition of 250 μL of ice‐cold acetonitrile, vortexed, and centrifuged at 13 000 r.p.m. for 5 min [68]. The supernatants were analyzed by LC‐UV and LC‐HRMS equipment (see Tables S1 and S2, Fig. S79 for full parameters setting in the Supporting Information).
The metabolic stability of the compound 23 was determined in vitro by measuring the residual peak area after incubation by LC‐UV analysis. Samples were further processed by LC‐HRMS equipment for metabolite profiling. Raw data files were processed using both XCALIBUR® and COMPOUND DISCOVERER 3.2® software (Thermo Scientific) using a customized workflow for the detection and identification of the expected and unknown metabolites (Fig. S80).

hTRPA1 = molecular target: T2, hTRPA1 (Homo sapiens, UniProt O75762); assay: Whole-cell patch-clamp of AITC-evoked currents in HEK293 cells expressing hTRPA1; format: cell-based; conditions: 5 μM compound, 60 μM AITC, −60 mV
T2 construct: expressed in transfected cells; host or cells: HEK293 (transient, Lipofectamine 3000)
Description: To evaluate receptor selectivity, we investigated the activity of compound 23 on recombinant hTRPV1 and hTRPA1 channels recombinantly expressed in HEK293 cells (Fig. 4). We choose these thermosensory channels because of their structural similarity and expression in peripheral nociceptive terminals. In addition, some ligand cross‐interaction within these channels has been reported.
as §1, with “Total currents were normalized to the first current peak evoked by the activating stimuli. To study the effect of compound 23 on TRPM8 voltage dependence, a voltage step protocol from −120 to 120 mV was used with 100 ms steps of 20 mV from a holding potential at 0 mV.” left out, “mV. […]” for “mV.”

T1 sequence (Q7Z2W7 whole entry): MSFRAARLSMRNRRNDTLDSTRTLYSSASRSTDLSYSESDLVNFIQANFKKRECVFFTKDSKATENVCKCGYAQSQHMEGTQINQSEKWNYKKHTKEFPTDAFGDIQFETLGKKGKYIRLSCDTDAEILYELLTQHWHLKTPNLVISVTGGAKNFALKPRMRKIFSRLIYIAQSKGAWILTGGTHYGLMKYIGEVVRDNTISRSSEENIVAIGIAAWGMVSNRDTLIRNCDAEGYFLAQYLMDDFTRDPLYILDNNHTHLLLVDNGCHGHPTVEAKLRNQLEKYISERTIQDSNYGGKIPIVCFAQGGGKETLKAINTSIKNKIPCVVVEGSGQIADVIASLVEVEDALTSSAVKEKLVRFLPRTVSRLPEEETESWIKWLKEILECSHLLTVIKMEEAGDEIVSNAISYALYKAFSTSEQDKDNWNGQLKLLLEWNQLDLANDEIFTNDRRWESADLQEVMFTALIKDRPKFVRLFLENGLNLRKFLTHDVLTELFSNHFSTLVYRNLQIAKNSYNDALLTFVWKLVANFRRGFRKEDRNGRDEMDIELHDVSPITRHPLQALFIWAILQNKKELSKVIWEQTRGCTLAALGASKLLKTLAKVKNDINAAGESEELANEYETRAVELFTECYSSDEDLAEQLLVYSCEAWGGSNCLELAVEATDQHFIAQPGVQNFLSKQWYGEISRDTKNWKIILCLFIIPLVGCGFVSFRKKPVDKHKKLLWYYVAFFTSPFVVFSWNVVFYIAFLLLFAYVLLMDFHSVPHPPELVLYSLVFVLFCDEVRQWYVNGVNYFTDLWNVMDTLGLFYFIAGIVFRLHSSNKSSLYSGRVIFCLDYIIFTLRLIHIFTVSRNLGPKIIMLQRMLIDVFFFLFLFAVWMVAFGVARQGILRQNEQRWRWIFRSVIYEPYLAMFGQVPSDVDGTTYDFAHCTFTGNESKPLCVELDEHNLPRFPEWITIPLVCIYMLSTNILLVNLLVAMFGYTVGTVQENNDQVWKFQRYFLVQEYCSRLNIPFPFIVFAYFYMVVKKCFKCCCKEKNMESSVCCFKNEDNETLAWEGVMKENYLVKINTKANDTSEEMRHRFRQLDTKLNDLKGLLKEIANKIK
T2 sequence (O75762 whole entry): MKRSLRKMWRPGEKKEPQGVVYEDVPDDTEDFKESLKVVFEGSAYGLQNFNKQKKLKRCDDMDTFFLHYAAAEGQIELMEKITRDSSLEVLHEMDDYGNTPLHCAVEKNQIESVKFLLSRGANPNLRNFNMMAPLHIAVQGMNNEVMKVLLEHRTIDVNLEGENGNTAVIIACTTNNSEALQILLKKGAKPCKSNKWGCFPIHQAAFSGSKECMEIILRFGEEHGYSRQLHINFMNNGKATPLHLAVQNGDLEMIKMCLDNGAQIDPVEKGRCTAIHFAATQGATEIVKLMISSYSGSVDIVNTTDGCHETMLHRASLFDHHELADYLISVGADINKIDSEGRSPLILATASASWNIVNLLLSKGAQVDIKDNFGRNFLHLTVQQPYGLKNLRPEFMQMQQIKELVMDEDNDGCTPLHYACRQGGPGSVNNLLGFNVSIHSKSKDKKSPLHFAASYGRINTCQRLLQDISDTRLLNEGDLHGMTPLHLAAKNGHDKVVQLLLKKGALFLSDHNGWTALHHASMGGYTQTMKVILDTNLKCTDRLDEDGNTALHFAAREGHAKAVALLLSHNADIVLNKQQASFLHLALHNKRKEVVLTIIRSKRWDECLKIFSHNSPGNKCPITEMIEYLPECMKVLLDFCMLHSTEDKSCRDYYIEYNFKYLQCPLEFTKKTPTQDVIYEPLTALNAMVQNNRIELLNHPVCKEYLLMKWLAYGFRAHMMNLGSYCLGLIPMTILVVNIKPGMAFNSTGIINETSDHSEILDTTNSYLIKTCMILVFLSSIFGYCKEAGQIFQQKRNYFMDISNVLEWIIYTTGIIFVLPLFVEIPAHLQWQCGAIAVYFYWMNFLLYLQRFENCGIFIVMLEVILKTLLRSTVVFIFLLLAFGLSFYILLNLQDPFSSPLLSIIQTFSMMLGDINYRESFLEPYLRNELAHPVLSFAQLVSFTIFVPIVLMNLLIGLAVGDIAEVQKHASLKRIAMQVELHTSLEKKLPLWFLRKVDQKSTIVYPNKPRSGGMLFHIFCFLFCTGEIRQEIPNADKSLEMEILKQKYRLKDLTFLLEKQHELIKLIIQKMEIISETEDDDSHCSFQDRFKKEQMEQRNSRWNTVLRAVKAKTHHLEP

Cc1cccc(COc2ccccc2C(=O)N(CCCN)Cc2cccs2)c1 [AMTB, N‐(3‐aminopropyl)‐2‐{[(3‐methylphenyl)methyl]oxy}(20)‐N‐(2‐thienylmethyl)benzamide, reference compound]
voltage dependency of channel blockade (hTRPM8; voltage steps −120 to 120 mV, 0.08 μM compound 23, 10 μM AMTB): not voltage dependent

O=C(CO)NC12CC3CC(CC(C3)C1)C2 [Compound M1a]
Metabolite relative abundancy [1]: 18.7%

CC(C)c1ccc(NC(=O)Cn2cnc3c2c(=O)n(C)c(=O)n3C)cc1 [HC030031, 2‐(1,3‐Dimethyl‐2,6‐dioxo‐1,2,3,6‐tetrahydro‐7H‐purin‐7‐yl)‐N‐(4‐isopropylphenyl)acetamide, reference compound]
block of hTRPA1‐evoked (AITC) current (hTRPA1): completely abrogated

COc1ccc(NC(=O)[C@@H]2C[C@H](C)CC[C@H]2C(C)C)cc1 [WS‐12, (1R,2S,5R)‐N‐(4‐methoxyphenyl)‐5‐methyl‐2‐(propan‐2‐yl)cyclohexane‐1‐carboxamide, reference compound]
WS‐12 Hill coefficient in the absence of compound 23 (hTRPM8; patch-clamp): 1.17
WS‐12 Hill coefficient in the presence of compound 23 (hTRPM8; patch-clamp, 0.08 μM compound 23): 0.95
EC50 (hTRPM8; patch-clamp, n = 18, read-out: WS‐12 EC50 in the absence of compound 23): 3 µM
